# Publication PMC2918227 (Bioorganic & medicinal chemistry, 2010)
# Tests used:
# human 5-HT2A receptor = human 5-HT2A receptor (Homo sapiens, UniProt P28223); assay: 5HT2A Ke determination in FLIPR assay; format: cell-based
# [1] = Stability of the isolated free base on storage; format: physicochemical; conditions: yellow oil, converted to hydrochloride salt for long-term storage
# Chain of human 5-HT2A receptor (P28223 whole entry): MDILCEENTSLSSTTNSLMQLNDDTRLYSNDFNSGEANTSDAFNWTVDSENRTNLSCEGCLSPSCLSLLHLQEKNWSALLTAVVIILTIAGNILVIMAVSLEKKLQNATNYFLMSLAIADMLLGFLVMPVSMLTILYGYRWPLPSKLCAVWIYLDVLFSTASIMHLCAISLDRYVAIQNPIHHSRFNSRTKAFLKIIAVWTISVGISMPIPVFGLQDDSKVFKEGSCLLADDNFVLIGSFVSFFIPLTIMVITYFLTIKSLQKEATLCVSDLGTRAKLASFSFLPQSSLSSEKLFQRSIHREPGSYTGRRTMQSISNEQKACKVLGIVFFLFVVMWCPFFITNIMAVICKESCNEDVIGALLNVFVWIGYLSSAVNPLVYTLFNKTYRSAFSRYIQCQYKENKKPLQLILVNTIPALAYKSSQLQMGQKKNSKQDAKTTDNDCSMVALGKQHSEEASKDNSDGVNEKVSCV
Kb (human 5-HT2A receptor),SMILES,stability of the compound [1]
> 10 µM,"COc1cc2c3c(c1OC)-c1cc4c(cc1CC3N(C(C)=O)CC2)OCO4 (stereo not drawn) [Compound 8c, 1,2-dimethoxy-6-acetyl-5,6,6a,7-tetrahydro-4H-benzo[de][1,3]benzodioxolo[5,6-g]quinoline]",
> 10 µM,"COc1cc2c3c(c1OC)-c1cc4c(cc1CC3N(S(C)(=O)=O)CC2)OCO4 (stereo not drawn) [Compound 8d, 1,2-dimethoxy-6-methanesulfonyl-5,6,6a,7-tetrahydro-4H-benzo[de][1,3]benzodioxolo[5,6-g]quinoline]",
,"COc1cc2c3c(c1OC)-c1cc4c(cc1CC3NCC2)OCO4 (stereo not drawn) [Compound 8a, 1,2-dimethoxy-5,6,6a,7-tetrahydro-4H-benzo[de][1,3]benzodioxolo[5,6-g]quinoline]",unstable
